US20230201025A1, “PROCESS FOR FABRICATING A DENTAL APPLIANCE AND ACCOMPANYING USE CASES” (Bottmedical AG, priority 2020, published 2023)

Assays:
[1] = tested on: Streptococcus mitis; test: calorimetric measurement of suppression of bacterial growth (S. mitis); type: cell-based; conditions: single essential oil component at 0.1% in BHI
Experimental: (§1) Finally, additional calorimetric experiments were performed to measure the capability of different agents of suppressing the growth of bacteria such as Streptococcus mutans and Streptococcus mitis. The different agents 7 were applied as a solution containing a single essential oil component at a concentration of 0.1% in BHI. As figure of merits, the lag phase, defined as the postponement in time of the growth of the bacteria and measured in hours, and the growth rate (increase in number of bacteria/time), measured in J/h, of the Streptococcus populations were determined as follows: […]

[2] = tested on: Streptococcus mutans; test: calorimetric measurement of suppression of bacterial growth (S. mutans); type: cell-based; conditions: single essential oil component at 0.1% in BHI
Experimental: as §1

Compound	growth rate (J/h) of S. mitis [1]	lag phase (h) of S. mitis growth [1]	growth rate (J/h) of S. mutans [2]	lag phase (h) of S. mutans growth [2]	growth rate (J/h) of S. mutans ([2]; listed as cinnamaldehyde)
CC12CCC(CC1)C(C)(C)O2 [Eucalyptol]	0.14 J/h	2 h	1.3 J/h	5 h	
C=C(C)[C@H]1CC=C(C)CC1 [Limonene]	0.11 J/h	3 h			
O=CC=Cc1ccccc1 [cinnam aldehyde, cinnamaldehyde]	0.15 J/h	6.2 h	0 J/h	>24 h	without any measurable growth
COC(=O)c1ccccc1O [methyl salicylate]	0.4 J/h	23 h	1.2 J/h	5 h	
C/C=C/c1ccc(OC)cc1 [trans-anethole]	0.13 J/h	6.4 h	0.03 J/h	>24 h	
